Series [1] is described as follows: In-vitro liver microsomal stability (dog). It counts as in vitro ADME. As to conditions: Dog liver microsomes, 1 µM, 0.5 mg/mL, NADPH. The procedure: (§1) Test Example 3. Evaluation of In-Vitro Liver Microsomal Stability
(§2) • 1) Preparation of test sample working solution: A test sample was diluted to 100 µM with methanol. • 2) Preparation of liver microsome working solution: Liver microsomes were diluted to 0.56 mg/mL with 100 mM phosphate-buffered saline. • 3) Preparation of working solution of reduced nicotinamide adenine dinucleotide phosphate (NADPH): A proper amount of NADPH was weighed out and diluted to 20 mM with phosphate-buffered saline, and then an equal volume of a 60 mM MgCl2 solution was added. • 4) Preparation of stop solution: Tolbutamide was diluted to 20 ng/mL with acetonitrile to serve as a stop solution containing an internal standard.
• 1) Anti-adsorption EP tubes for incubation were prepared and labeled with species, test samples, control samples (testosterone and dextromethorphan), time points (0 min, 5 min, 10 min, 20 min, 30 min, 60 min, Blank60, and NCF60), etc. • 2) 2 µL of test or control sample working solution and 178 µL of liver microsome working solution were added to each tube. For the Blank tube, 2 µL of acetonitrile was added instead of the test sample. The tubes were preincubated in a water bath at 37 °C for about 10 min, with 3 replicates set up for each sample. • 3) After the pre-incubation was completed, 20 µL of NADPH working solution was added to each tube except for the 0 min and NCF60 tubes to start the reaction. For the NCF60 tube, 20 µL of phosphate-buffered saline (containing 30 mM MgCl2) was added. In the incubation system, the final concentration of the test or control sample was 1 µM, the final concentration of liver microsomes was 0.5 mg/mL, the final concentration of NADPH was 1 mM, and the final concentration of MgCl2 was 3 mM. • 4) For the 0 min sample, 600 µL of stop solution was added, followed by the addition of the NADPH working solution. For the other samples, after each of them was incubated for the corresponding time, 600 µL of stop solution was added to stop the reaction. • 5) After the reaction was stopped, each sample was vortexed for 30 s and then centrifuged at 13500 rpm for 10 min. Then, 100 µL of the supernatant was transferred to an EP tube, and 100 µL of Milli-Q water was added. The mixture was well mixed by vortexing and analyzed by LC-MS/MS. • 6) Testosterone and dextromethorphan were used as positive control samples under the same conditions to assess the stability and reliability of the system. […]

Series [2] is described as follows: In-vitro liver microsomal stability (human). It counts as in vitro ADME. As to conditions: Human liver microsomes, 1 µM, 0.5 mg/mL, NADPH. The procedure: as §1, §2
• 1) Anti-adsorption EP tubes for incubation were prepared and labeled with species, test samples, control samples (testosterone and dextromethorphan), time points (0 min, 5 min, 10 min, 20 min, 30 min, 60 min, Blank60, and NCF60), etc. • 2) 2 µL of test or control sample working solution and 178 µL of liver microsome working solution were added to each tube. For the Blank tube, 2 µL of acetonitrile was added instead of the test sample. The tubes were preincubated in a water bath at 37 °C for about 10 min, with 3 replicates set up for each sample. • 3) After the pre-incubation was completed, 20 µL of NADPH working solution was added to each tube except for the 0 min and NCF60 tubes to start the reaction. For the NCF60 tube, 20 µL of phosphate-buffered saline (containing 30 mM MgCl2) was added. In the incubation system, the final concentration of the test or control sample was 1 µM, the final concentration of liver microsomes was 0.5 mg/mL, the final concentration of NADPH was 1 mM, and the final concentration of MgCl2 was 3 mM. • 4) For the 0 min sample, 600 µL of stop solution was added, followed by the addition of the NADPH working solution. For the other samples, after each of them was incubated for the corresponding time, 600 µL of stop solution was added to stop the reaction. • 5) After the reaction was stopped, each sample was vortexed for 30 s and then centrifuged at 13500 rpm for 10 min. Then, 100 µL of the supernatant was transferred to an EP tube, and 100 µL of Milli-Q water was added. The mixture was well mixed by vortexing and analyzed by LC-MS/MS. • 6) Testosterone and dextromethorphan were used as positive control samples under the same conditions to assess the stability and reliability of the system.
Table 2: Test data for the compounds of the present disclosure in human and rat liver microsomes

The target of another series is 5-HT2A receptor (Homo sapiens, UniProt P28223). Kind of series: Assay for 5-HT2A receptor inverse agonist activity (NIH3T3-5-HT2A R cells, Bright-Glo luciferase, cell inhibition rate).
A further series concerns the target hERG potassium channels (Homo sapiens, UniProt Q12809). Kind of series: cell-based.
Where [3] appears, read: 5-HT2A inverse agonist activity IC50 (nM), NIH3T3-5HT2A R cells, 120 h, luminescence.

The structures appear in SMILES notation. Like-named read-outs stand apart in the source and are kept apart here.

5-HT2A receptor, sequence (P28223 whole entry): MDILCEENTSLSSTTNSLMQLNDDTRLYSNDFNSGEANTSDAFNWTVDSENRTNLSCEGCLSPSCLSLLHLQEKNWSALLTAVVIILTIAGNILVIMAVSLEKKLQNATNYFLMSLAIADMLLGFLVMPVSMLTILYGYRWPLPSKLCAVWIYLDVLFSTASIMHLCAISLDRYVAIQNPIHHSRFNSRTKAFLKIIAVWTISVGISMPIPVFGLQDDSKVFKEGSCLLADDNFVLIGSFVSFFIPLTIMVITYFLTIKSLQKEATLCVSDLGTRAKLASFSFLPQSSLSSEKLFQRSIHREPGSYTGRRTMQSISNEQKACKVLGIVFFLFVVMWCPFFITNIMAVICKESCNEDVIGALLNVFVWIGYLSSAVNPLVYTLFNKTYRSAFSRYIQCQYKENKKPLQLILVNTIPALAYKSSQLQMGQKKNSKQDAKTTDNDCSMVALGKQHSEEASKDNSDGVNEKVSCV
hERG potassium channels, sequence (Q12809 whole entry): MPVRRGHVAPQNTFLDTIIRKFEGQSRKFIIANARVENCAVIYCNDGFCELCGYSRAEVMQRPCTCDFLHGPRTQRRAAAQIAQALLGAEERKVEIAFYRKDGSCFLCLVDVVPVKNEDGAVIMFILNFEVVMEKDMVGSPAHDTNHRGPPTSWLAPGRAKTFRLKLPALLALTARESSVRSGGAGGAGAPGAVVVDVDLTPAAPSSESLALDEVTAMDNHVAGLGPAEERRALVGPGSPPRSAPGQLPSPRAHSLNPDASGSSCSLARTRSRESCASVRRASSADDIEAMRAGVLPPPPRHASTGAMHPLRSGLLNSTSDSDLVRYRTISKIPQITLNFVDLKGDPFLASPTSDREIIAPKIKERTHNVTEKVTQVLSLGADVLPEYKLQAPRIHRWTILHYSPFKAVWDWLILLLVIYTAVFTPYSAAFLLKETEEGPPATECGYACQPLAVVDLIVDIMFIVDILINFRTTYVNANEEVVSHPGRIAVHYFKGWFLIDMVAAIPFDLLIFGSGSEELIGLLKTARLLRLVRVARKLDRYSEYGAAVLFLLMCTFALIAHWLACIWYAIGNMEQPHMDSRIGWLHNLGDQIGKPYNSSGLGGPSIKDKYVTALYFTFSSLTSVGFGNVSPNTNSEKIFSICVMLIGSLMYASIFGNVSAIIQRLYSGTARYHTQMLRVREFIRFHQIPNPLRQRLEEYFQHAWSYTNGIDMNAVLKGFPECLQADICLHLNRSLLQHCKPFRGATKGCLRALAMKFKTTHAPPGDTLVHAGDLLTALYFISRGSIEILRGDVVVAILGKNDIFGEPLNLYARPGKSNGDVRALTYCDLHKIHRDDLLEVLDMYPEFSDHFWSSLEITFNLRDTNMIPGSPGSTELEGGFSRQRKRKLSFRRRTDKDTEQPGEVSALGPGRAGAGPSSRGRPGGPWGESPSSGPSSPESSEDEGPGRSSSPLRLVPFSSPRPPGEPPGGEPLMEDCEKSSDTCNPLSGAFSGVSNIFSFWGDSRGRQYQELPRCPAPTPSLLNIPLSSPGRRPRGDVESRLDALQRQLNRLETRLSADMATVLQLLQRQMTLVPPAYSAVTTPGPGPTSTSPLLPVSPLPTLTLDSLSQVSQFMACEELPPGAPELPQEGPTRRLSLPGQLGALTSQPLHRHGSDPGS
Method for 5-HT2A receptor: Assay for 5-HT2A Receptor Inverse Agonist Activity
• Cell line: adherent cells NIH3T3-5-HT2A R • Cell culture medium: DMEM + 10% FBS (purchased from GBICO) • Cell culture plate: 96-well white/clear bottom plate (purchased from Perkin Elmer) • Detection kit: Bright-Glo™ Luciferase (purchased from Promega) • Detection instrument: BioTek multimode microplate reader
NIH3T3-5HT2A R cells in the logarithmic growth phase were seeded into a 96-well white/clear bottom plate at a density of 1000 cells/well and then cultured overnight in an incubator at 37 °C with 5% CO2. […] Duplicate wells were set up for each concentration. […] After the drug addition, the cells were cultured in the incubator at 37 °C with 5% CO2 for another 120 h. On the sixth day, a Bright-Glo™ Luciferase reagent was added to the cells in a volume equal to that of the cell culture medium. The plate was then incubated in the dark at room temperature for 20 min, with the plate shaker vibrating once every 5 min. The luminescence intensity was detected using a microplate reader, and the cell inhibition rate was calculated. Data were processed using GraphPad Prism 7.0 to obtain the cell inhibition rate curve and calculate IC50.
Method for hERG potassium channels: • Species & strain: CHO-hERG cell line (Chinese hamster ovary cells stably expressing hERG channels) • Culture medium: 90% F12, 10% fetal bovine serum, 100 µg/mL G418, and 100 µg/mL Hygromycin B • Culture conditions: incubator at 37 °C with 5% CO2 • Cryopreservation condition: liquid nitrogen
On the day of the test, the compound was diluted with DMSO to an intermediate concentration. Then, 10 µL of the intermediate-concentration compound was transferred to 4990 µL of extracellular fluid, achieving a 500-fold dilution to obtain the final concentration to be tested.
hERG potassium channel currents were recorded at room temperature by the whole-cell patch clamp technique in the CHO (Chinese hamster ovary) cells stably expressing hERG potassium channels. Glass microelectrodes were formed by pulling a glass electrode blank (BF150-86-10, Sutter) using a puller. The tip resistance after perfusion of electrode internal solution was about 2-5 MΩ. The glass microelectrodes could be connected to a patch clamp amplifier after being inserted into amplifier probes. The clamping voltage and data recording were controlled and recorded by a computer with a pClamp 10 software, with a sampling frequency of 10 kHz and a filtering frequency of 2 kHz. After achieving the whole-cell recording, the cells were clamped at -80 mV. The step voltage evoking hERG potassium current (IhERG) was changed from -80 mV to +20 mV by applying a 2 s depolarization voltage, followed by repolarization to -50 mV for 1 s, and then returned to -80 mV. This voltage stimulation was applied every 10 s, and after it was determined that the hERG potassium currents were stable (1 min), the administration process was started. Each test concentration of the compound was applied for at least 1 min, and at least 2 cells (n ≥ 2) were tested for each concentration.

Take `CN1CCC(N(Cc2ccc(F)cn2)C(=O)NCc2ccc(OCC(F)(F)F)nc2)C(F)(F)C1` (single isomer, unassigned) [Compound 46A]: the entries for the “Remaining amount% at 60 min” value in series [1] and in series [2] were 40.77% and 1.21%, respectively. Further, the half-maximal inhibitory concentration (IC50) on 5-HT2A receptor (setting [3]) was above 1000 nM.

`CN1CCC(N(Cc2ccc(F)cn2)C(=O)NCc2ccc(OCC(F)(F)F)nc2)C(C)(C)C1` (single isomer, unassigned) [Compound 49A] showed an IC50 at 5-HT2A receptor (setting [3]) of 105 nM.

At 5-HT2A receptor (setting [3]), `CN1CCC(N(Cc2ccc(F)cn2)C(=O)NCc2ccc(OCC(F)(F)F)nc2)C(C)(C)C1` (single isomer, unassigned) [Compound 49B] came in with an IC50 above 1000 nM.

In the case of `CN1CCC(N(Cc2ccc(F)cn2)C(=O)NCc2ccc(OCC(F)(F)F)nc2)C2(CC2)C1` (single isomer, unassigned) [Compound 50B], the half-maximal inhibitory concentration (IC50) at 5-HT2A receptor (setting [3]) turned out to be 381 nM. This lies in the sub-micromolar range.

For the molecule `O=C(NCc1ccc(OCC(F)(F)F)nc1)N(Cc1ccc(F)cn1)C1CCNCC1F` (single isomer, unassigned) [Compound 56A], the concentration for half-maximal inhibition (IC50) against hERG potassium channels was 15500 nM; on 5-HT2A receptor (setting [3]) it was above 1000 nM.

In the case of `O=C(NCc1ccc(OCC(F)(F)F)nc1)N(Cc1ccc(F)cn1)C1CCNCC1F` (single isomer, unassigned) [Compound 56B], the results for the IC50 against hERG potassium channels and at 5-HT2A receptor (setting [3]) were 12600 nM and 325 nM, respectively.

For `CCN1CC[C@@H](N(Cc2ccc(F)cn2)C(=O)NCc2ccc(OCC(F)(F)F)nc2)[C@@H](F)C1` (single isomer, unassigned) [Compound 69A], the IC50 on 5-HT2A receptor (setting [3]) was above 1000 nM.

`CCN1CC[C@H](N(Cc2ccc(F)cn2)C(=O)NCc2ccc(OCC(F)(F)F)nc2)[C@H](F)C1` (single isomer, unassigned) [Compound 69B] returned an IC50 at 5-HT2A receptor (setting [3]) of 156 nM.

As to `CC(C)N1CC[C@@H](N(Cc2ccc(F)cn2)C(=O)NCc2ccc(OCC(F)(F)F)nc2)[C@@H](F)C1` (single isomer, unassigned) [Compound 70A], the half-maximal inhibitory concentration (IC50) at 5-HT2A receptor (setting [3]) was above 1000 nM.

Turning to `CC(C)N1CC[C@H](N(Cc2ccc(F)cn2)C(=O)NCc2ccc(OCC(F)(F)F)nc2)[C@H](F)C1` (single isomer, unassigned) [Compound 70B], the half-inhibitory concentration (IC50) on 5-HT2A receptor (setting [3]) was 280 nM.

`[2H]C([2H])([2H])N1CC[C@@H](N(Cc2ccc(F)cn2)C(=O)NCc2ccc(OCC(F)(F)F)nc2)[C@@H](F)C1` (single isomer, unassigned) [Compound 72A]: on 5-HT2A receptor (setting [3]), the IC50 is 416 nM.

With `[2H]C([2H])([2H])N1CC[C@H](N(Cc2ccc(F)cn2)C(=O)NCc2ccc(OCC(F)(F)F)nc2)[C@H](F)C1` (single isomer, unassigned) [Compound 72B], the IC50 at 5-HT2A receptor (setting [3]) came out at 43.7 nM.

Molecule `CN1CCC(N(Cc2ccc(F)cc2)C(=O)NCc2ccc(OCC(F)(F)F)nc2)C2(CC2)C1` (single isomer, unassigned) [Compound 83A] yielded a half-maximal inhibitory concentration (IC50) at 5-HT2A receptor (setting [3]) of 10.4 nM.

`CN1CCC(N(Cc2ccc(F)cc2)C(=O)NCc2ccc(OCC(F)(F)F)nc2)C2(CC2)C1` (single isomer, unassigned) [Compound 83B] displayed an IC50 on 5-HT2A receptor (setting [3]) of 211 nM. Compared with the last molecule, the IC50 is about 20-fold higher.

Regarding `CN1CC[C@@H](N(Cc2ccc(F)cc2)C(=O)NCc2ccc3c(ccn3C)c2)[C@@H](F)C1` (single isomer, unassigned) [Compound 85A], on 5-HT2A receptor (setting [3]), the IC50 was above 1000 nM.

In turn, `CN1CC[C@H](N(Cc2ccc(F)cc2)C(=O)NCc2ccc3c(ccn3C)c2)[C@H](F)C1` (single isomer, unassigned) [Compound 85B] displayed an IC50 on 5-HT2A receptor (setting [3]) of 88.7 nM.

With `CN1CCC(N(Cc2ccc(F)cn2)C(=O)NCc2ccc(OC3CC3)cn2)CC1` [Compound 2], the “Remaining amount% at 60 min” value in series [1] was 76.7%; in series [2], 79.7%. The molecule further came in with an IC50 on 5-HT2A receptor of 72.8 nM.

As for `CN1CCC(N(Cc2ccc(F)cn2)C(=O)NCc2ccc(OCC3CC3)cn2)CC1` [Compound 3], the “Remaining amount% at 60 min” value in series [1] was 100.0%; in series [2], 94.1%. The molecule further returned an IC50 at 5-HT2A receptor of 149 nM.

`CN1CCC(N(Cc2ccc(F)cn2)C(=O)NCc2ccc(OCC3CC3(C)C)cn2)CC1` (stereo not drawn) [Compound 4] displayed an IC50 at 5-HT2A receptor above 1000 nM.

For the molecule `CN1CCC(N(Cc2ccc(F)cn2)C(=O)NCc2ccc(OCC(F)(F)F)nc2)CC1` [Compound 5], the results for the “Remaining amount% at 60 min” value in series [1] and in series [2] were 99.8% and 99.9%, respectively. Besides, the IC50 on 5-HT2A receptor (setting [3]) was determined as 13.1 nM.

For the molecule `CN1CCC(N(Cc2ccc(F)cn2)C(=O)NCc2ccc(OC3CC(F)(F)C3)nc2)CC1` [Compound 6], the “Remaining amount% at 60 min” value was found to be 98.8% in series [1] and 90.8% in series [2]. On 5-HT2A receptor (setting [3]), the concentration for half-maximal inhibition (IC50) is 25.4 nM.

In the case of `CC(C)COc1ccc(CNC(=O)N(Cc2ccc3ncccc3c2)C2CCN(C)CC2)cc1` [Compound 7], the IC50 is 1320 nM on hERG potassium channels and above 1000 nM on 5-HT2A receptor.

In the case of `CC(C)COc1ccc(CNC(=O)N(Cc2ccc3ncccc3c2)C2CCN(C)CC2)nc1` [Compound 8], at 5-HT2A receptor, the half-inhibitory concentration (IC50) is above 1000 nM.

Consider `CN1CCC(N(Cc2ccc(F)cn2)C(=O)NCc2ccc3nc[nH]c3c2)CC1` [Compound 11], for which the half-maximal inhibitory concentration (IC50) on 5-HT2A receptor was found to be 672 nM.

Turning to `CN1CCC(N(Cc2ccc(F)cn2)C(=O)NCc2ccc3c(c2)c(F)cn3C)CC1` [Compound 13], the IC50 at 5-HT2A receptor is 184 nM.

As for `CN1CCC(N(Cc2ccc(F)cn2)C(=O)NCc2ccc3occc3c2)CC1` [Compound 57], the IC50 was found to be 1440 nM against hERG potassium channels and 51.9 nM at 5-HT2A receptor (setting [3]).

Consider `CN1CCC(N(Cc2ccc(F)cn2)C(=O)NCc2ccc3sccc3c2)CC1` [Compound 58], for which the half-maximal inhibitory concentration (IC50) on 5-HT2A receptor amounted to 41 nM.

In the case of `CN1CCC(N(Cc2ccc(F)cn2)C(=O)NCc2ccc3c(c2)C=CC3)CC1` [Compound 59], the results for the half-inhibitory concentration (IC50) at hERG potassium channels and at 5-HT2A receptor were 1480 nM and 86.1 nM, respectively.

Molecule `CN1CCC(N(Cc2ccc(F)cn2)C(=O)NCc2ccc3c(c2)CCC3)CC1` [Compound 60] came in with a 50% inhibitory concentration (IC50) on 5-HT2A receptor of 64.4 nM.

Take `CN1CCC(N(Cc2ccc(F)cn2)C(=O)NCc2ccc3ccccc3c2)CC1` [Compound 61]: the 50% inhibitory concentration (IC50) on 5-HT2A receptor is 79.2 nM.

`CN1CC2CCC(C1)C2N(Cc1ccc(F)cn1)C(=O)NCc1ccc(OCC(F)(F)F)nc1` (stereo not drawn) [Compound 77] yielded a half-maximal inhibitory concentration (IC50) at 5-HT2A receptor above 1000 nM.

In turn, `CN1C2CCC1CC(N(Cc1ccc(F)cn1)C(=O)NCc1ccc(OCC(F)(F)F)nc1)C2` (stereo not drawn) [Compound 79] had an IC50 on 5-HT2A receptor of 771 nM.

In the case of `Cc1cc(CN(C(=O)NCc2ccc(OCC(F)(F)F)nc2)[C@@H]2CCN(C)C[C@@H]2F)nn1C` [Compound 82A], at 5-HT2A receptor, the IC50 was above 1000 nM.

With `Cc1cc(CN(C(=O)NCc2ccc(OCC(F)(F)F)nc2)[C@H]2CCN(C)C[C@H]2F)nn1C` [Compound 82B], at 5-HT2A receptor, the IC50 came to 664 nM.

On to `CN1CCC(N(Cc2ccc(F)cn2)C(=O)NCc2ccc3c(c2)c(C(F)(F)F)cn3C)CC1` [Compound 84], for which the IC50 on 5-HT2A receptor was above 1000 nM.

For `CN1CC[C@@H](N(Cc2ccc(F)cc2)C(=O)NCc2ccc3ncccc3c2)[C@@H](F)C1` [Compound 86A], the IC50 on 5-HT2A receptor was above 1000 nM.

Regarding `CN1CC[C@H](N(Cc2ccc(F)cc2)C(=O)NCc2ccc3ncccc3c2)[C@H](F)C1` [Compound 86B], the concentration for half-maximal inhibition (IC50) on 5-HT2A receptor was 36.8 nM.

Turning to `CC(C)COc1ccc(CNC(=O)N(Cc2ccc(F)cc2)C2CCN(C)CC2)cc1` [Pimavanserin, reference compound], the “Remaining amount% at 60 min” value came out at 68.5% in series [1] and 70.7% in series [2].

The values are drawn from patent EP4570793A1, “5-HT2A RECEPTOR INVERSE AGONIST, AND PREPARATION METHOD THEREFOR AND USE THEREOF” (Luye Innomind Pharma Shijiazhuang Co., Ltd., priority 2022, dated 2024).
